Data as given in article PMC7490411 (Signal Transduction and Targeted Therapy, 2020).

Experiments:
CHEK2 = test: KINOMEscan; assay type: binding; settings: 1000 nM
KIT(V559D,T670I) = test: KINOMEscan; assay type: binding; settings: 1000 nM
DYRK2 = test: KINOMEscan; assay type: binding; settings: 1000 nM
RIPK2 = test: KINOMEscan; assay type: binding; settings: 1000 nM
VRK2 = test: KINOMEscan; assay type: binding; settings: 1000 nM
MAP4K3 = test: KINOMEscan; assay type: binding; settings: 1000 nM
[1] = test system: RSK4(Kin.Dom.2-C-terminal); test: KINOMEscan; assay type: binding; settings: 1000 nM
[2] = test system: ABL1(Y253F)-phosphorylated; test: KINOMEscan; assay type: binding; settings: 1000 nM
CHEK1 = test: KINOMEscan; assay type: binding; settings: 1000 nM
YANK2 = test: KINOMEscan; assay type: binding; settings: 1000 nM
CDK8 = test: KINOMEscan; assay type: binding; settings: 1000 nM
BRSK1 = test: KINOMEscan; assay type: binding; settings: 1000 nM
EGFR(L747-T751del,Sins) = test: KINOMEscan; assay type: binding; settings: 1000 nM
PAK7 = test: KINOMEscan; assay type: binding; settings: 1000 nM
MST4 = test: KINOMEscan; assay type: binding; settings: 1000 nM
ITK = biological target: T1, ITK (Homo sapiens, UniProt Q08881); test: KINOMEscan; assay type: binding; settings: 1000 nM, read-out: Percent Control
T1 construct: purchased Invitrogen (Carlsbad, CA, USA)
T1 sequence (Q08881 1-620): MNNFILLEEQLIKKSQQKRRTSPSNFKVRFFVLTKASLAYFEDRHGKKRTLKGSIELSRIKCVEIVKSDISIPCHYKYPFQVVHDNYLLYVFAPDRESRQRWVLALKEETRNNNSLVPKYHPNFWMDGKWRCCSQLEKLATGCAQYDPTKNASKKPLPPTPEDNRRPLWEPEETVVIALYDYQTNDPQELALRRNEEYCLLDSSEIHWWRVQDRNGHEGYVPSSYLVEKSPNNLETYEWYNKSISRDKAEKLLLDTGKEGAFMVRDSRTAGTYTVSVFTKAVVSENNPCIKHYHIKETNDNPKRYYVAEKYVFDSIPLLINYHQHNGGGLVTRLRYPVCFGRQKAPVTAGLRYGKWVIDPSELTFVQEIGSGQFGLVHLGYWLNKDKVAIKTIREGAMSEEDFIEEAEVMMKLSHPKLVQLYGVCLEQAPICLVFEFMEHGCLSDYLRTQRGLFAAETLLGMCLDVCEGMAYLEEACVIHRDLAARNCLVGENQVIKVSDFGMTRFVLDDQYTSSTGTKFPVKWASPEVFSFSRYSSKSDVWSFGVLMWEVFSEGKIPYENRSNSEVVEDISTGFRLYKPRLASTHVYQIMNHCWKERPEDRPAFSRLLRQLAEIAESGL

LRRK2(G2019S) = test: KINOMEscan; assay type: binding; settings: 1000 nM
JNK3 = test: KINOMEscan; assay type: binding; settings: 1000 nM
EIF2AK1 = test: KINOMEscan; assay type: binding; settings: 1000 nM
PFTK1 = test: KINOMEscan; assay type: binding; settings: 1000 nM
[3] = test system: ABL1(F317L)-nonphosphorylated; test: KINOMEscan; assay type: binding; settings: 1000 nM
PKAC-beta = test: KINOMEscan; assay type: binding; settings: 1000 nM
PRKCI = test: KINOMEscan; assay type: binding; settings: 1000 nM
RET = test: KINOMEscan; assay type: binding; settings: 1000 nM
WSU-DLCL2 = test: anti-proliferative CellTiter-Glo assay; assay type: cell-based; settings: Homo sapiens, WSUDLCL2; WSU-DLCL2, 72 h
Procedure: (§1) Cell viability was measured using the CellTiter–Glo assay (Promega, USA) according to the manufacturer’s instructions, and […] was measured in a Bio-red Microplate reader (Bio-Red, USA).

Ramos = test: anti-proliferative CellTiter-Glo assay; assay type: cell-based; settings: Homo sapiens, 72 h
Procedure: as §1

TMD8 = test: anti-proliferative CellTiter-Glo assay; assay type: cell-based; settings: Homo sapiens, TMD8, 72 h
Procedure: as §1

Pfeiffer = test: anti-proliferative CellTiter-Glo assay; assay type: cell-based; settings: Homo sapiens, 72 h
Procedure: as §1

SU-DHL-6 = test: anti-proliferative CellTiter-Glo assay; assay type: cell-based; settings: Homo sapiens, SU-DHL-6, 72 h
Procedure: as §1

Raji = test: anti-proliferative CellTiter-Glo assay; assay type: cell-based; settings: Homo sapiens, 72 h
Procedure: as §1

U2932 = test: anti-proliferative CellTiter-Glo assay; assay type: cell-based; settings: Homo sapiens, U2932, 72 h
Procedure: as §1

REC-1 = test: anti-proliferative CellTiter-Glo assay; assay type: cell-based; settings: Homo sapiens, Rec1; REC-1, 72 h
Procedure: as §1

SU-DHL-2 = test: anti-proliferative CellTiter-Glo assay; assay type: cell-based; settings: Homo sapiens, SU-DHL-2, 72 h
Procedure: as §1

JEKO-1 = test: anti-proliferative CellTiter-Glo assay; assay type: cell-based; settings: Homo sapiens, JeKo-1, 72 h
Procedure: as §1

DOHH2 = test: anti-proliferative CellTiter-Glo assay; assay type: cell-based; settings: Homo sapiens, DOHH-2; DOHH2, 72 h
Procedure: as §1

TRPM6 = test: KINOMEscan; assay type: binding; settings: 1000 nM
EGFR(E746-A750del) = test: KINOMEscan; assay type: binding; settings: 1000 nM
KIT(D816V) = test: KINOMEscan; assay type: binding; settings: 1000 nM
EGFR(S752-I759del) = test: KINOMEscan; assay type: binding; settings: 1000 nM
[4] = test system: ABL1(Q252H)-phosphorylated; test: KINOMEscan; assay type: binding; settings: 1000 nM
PIK3CB = test: KINOMEscan; assay type: binding; settings: 1000 nM
PLK4 = test: KINOMEscan; assay type: binding; settings: 1000 nM

SMILES: C=CC(=O)Nc1cc(Nc2cc(-c3cccc(NC(=O)c4cc5c(s4)CCCC5)c3C)cn(C)c2=O)ccc1N1CCN(CC)CC1 [CHMFL-BTK-85]
- Percent Control (CHEK2): 94%
- Percent Control (KIT(V559D,T670I)): 100%
- Percent Control (DYRK2): 98%
- Percent Control (RIPK2): 94%
- Percent Control (VRK2): 94%
- Percent Control (MAP4K3): 97%
- Percent Control [1]: 83%
- Percent Control [2]: 83%
- Percent Control (CHEK1): 79%
- Percent Control (YANK2): 77%
- Percent Control (CDK8): 100%
- Percent Control (BRSK1): 100%
- Percent Control (EGFR(L747-T751del,Sins)): 93%
- Percent Control (PAK7): 82%
- Percent Control (MST4): 100%
- remaining binding at 1 µM (ITK): 77%
- Percent Control (LRRK2(G2019S)): 100%
- Percent Control (JNK3): 98%
- Percent Control (EIF2AK1): 100%
- Percent Control (PFTK1): 80%
- Percent Control [3]: 100%
- Percent Control (PKAC-beta): 80%
- Percent Control (PRKCI): 100%
- Percent Control (RET): 100%
- GI50 (WSU-DLCL2): 1400 ± 210 nM
- GI50 (Ramos): 1300 ± 100 nM
- GI50 (TMD8): 17 ± 4 nM
- GI50 (Pfeiffer): 290 ± 140 nM
- GI50 (SU-DHL-6): 970 ± 220 nM
- GI50 (Raji): 1500 ± 58 nM
- GI50 (U2932): 800 ± 96 nM
- GI50 (REC-1): 28 ± 7 nM
- GI50 (SU-DHL-2): 570 ± 350 nM
- GI50 (JEKO-1): 1100 ± 240 nM
- GI50 (DOHH2): 700 ± 150 nM
- Percent Control (TRPM6): 100%
- Percent Control (EGFR(E746-A750del)): 100%
- Percent Control (KIT(D816V)): 71%
- Percent Control (EGFR(S752-I759del)): 90%
- Percent Control [4]: 96%
- Percent Control (PIK3CB): 94%
- Percent Control (PLK4): 97%
